Data on three molecules can be found in paper PMC11636681, “Pharmacokinetics and pharmacodynamics of antibacterial peptide NZX in Staphylococcus aureus mastitis mouse model” (Applied Microbiology and Biotechnology, 2024).

One assay concerns three S. aureus strains. The assay is described as follows: Mouse mastitis model, histopathological analysis and scoring of mammary tissues. The following applies: mice infected with the three S. aureus strains, 100 μg/gland. It is filed as in vivo. An excerpt: The 7 to 8-weeks old ICR mice (80 females, 40 males) were housed in independent ventilated cages, and feed with autoclaved laboratory food and water. Female mice in heat were put into the cage of males (females:males, 2:1) overnight and checked for vaginal plugs at the following morning to induce pregnancy. ICR-lactating mice were used at 6 to 8 days after the birth of the offspring. The mouse mastitis model was established as previously described (Li et al. [2017]). Mice were randomly divided into nine groups: NC group (uninfected group), PC group (infected but without treatment), NZX groups (25, 50, 100, 200 and 400 μg/gland, respectively), lincomycin group (100 μg/gland), and ceftiofur group (100 μg/gland). Each experimental group has six independent experiments with three mice. Specially, the pups were removed 1 h before the intramammary injection of both L4 (on the left) and R4 (on the right) abdominal mammal glands. […]
After mouse sacrifice, one part of mammary tissue was taken for bacterial count, and the other part was used for the histopathological analysis. […] The bacterial number on each plate was counted and the results were expressed as Log10 CFU per gram of mammary tissues. […]

The subject of a further assay is S. aureus ATCC 25923. The following applies: 1 × 10^5 CFU/mL, 16–18 h, 37 °C, value marked a, already published, ref Zheng et al. [2022]; cited from earlier work. From the text: Table 1 The MICs, MBCs and MPCs of NZX and antibiotics against S. aureus strains (μM) | column: S. aureus ATCC 25923 / MIC
Another assay relates to S. agalactiae. The following applies: against S. agalactiae; ref Wu et al. [2022]; cited from earlier work. An excerpt:
MPCs and PAEs were also important parameters to allow antimicrobial dosage regimens to be developed in a much more scientific approach to reduce treatment cost, and the incidences of drug resistant bacteria and avoid unnecessary drug toxicity (Mackenzie and Gould [1993]).

In another assay the test system is S. aureus ATCC 43300. The assay is described as follows: Cell membrane permeability, PI staining by flow cytometry. It is filed as cell-based, Staphylococcus aureus. The method, then:
Flow cytometry was used for the analysis of the effects of NZX on the penetration rate of the S. aureus cell membrane (Yang et al. [2019]). The S. aureus cells in mid-log phase were adjusted to 1 × 10^8 CFU/mL and the bacteria suspensions were treated with 1 × , 2 × and 4 × MIC of NZX for 2 h at 37 °C. In addition, the cell suspensions were incubated with 2 × MIC of NZX for 0 h, 0.5 h, 1 h and 2 h, respectively. After incubation, the cells were centrifuged at 4000 rpm at 4 °C for 5 min, washed twice with sterile PBS, and pellets were resuspended in 1 mL of PBS. Next, cells were stained with 50 µg/mL propidium iodide (PI) for 30 min in the dark at room temperature, and the proportion of cells with PI positive cells to the total cells were analyzed by flow-cytometry (BD, USA). Lincomycin and ceftiofur were used as positive controls and PBS as negative control. Three replicates for each treatment were conducted.
On the technique in general: Flow cytometry measures light scatter and fluorescence of single cells or particles in a stream.

The test system of a further assay is S. aureus E48. The assay is described as follows: In vitro dose-killing curves (24 h). It is filed as cell-based, Staphylococcus aureus. The following applies: for EC50: Staphylococcus aureus, 50% reduction in Log10 CFU at 24 h between minimum and maximum; for Cs: concentration causing no apparent growth in Log10 CFU at 24 h vs initial inoculum. The method, then: The in vitro dose-killing curves of NZX against the test S. aureus strains were conducted as previous described (Brinch et al. [2010]), with some modification. The S. aureus cells in mid-log phage were diluted. Then, the killing curves of NZX against S. aureus strains were carried out in the 48-well plate. Specifically, a volume of 50 μL NZX (0.6–150 μM) was mixed with 450 μL of the above diluted bacterial suspension (5 × 10^5 CFU/mL), and the mixtures were incubated in the Micro Oscillator for 24 h (600 rpm, 37 °C). Subsequently, the bacteria suspensions were plated on MHA medium to count. Lincomycin and ceftiofur were set as antibiotic controls, respectively. PBS was negative control. Results were expressed as the average of three independent experiments data.

Where [1] appears, read: 2 × MIC, range over 0, 0.5, 1 and 2 h.
Setting [2] is: 2 h, range over 1 × MIC, 2 × MIC and 4 × MIC.

Marks after values point to notes of the source that are not given here. Positions of bridges follow the written chain, without caps; N, C: chain ends. Residues, ends and D or L forms follow the SMILES beside them.

As to `CC[C@H](C)[C@@H]1NC(=O)[C@H](CO)NC(=O)[C@H](CCCCN)NC(=O)[C@@H]2CSSC[C@@H](C(=O)N[C@@H](Cc3ccc(O)cc3)C(=O)O)NC(=O)[C@H](CCCCN)NC(=O)[C@@H]3CSSC[C@H](NC(=O)[C@H](CCC(N)=O)NC(=O)[C@H]([C@@H](C)CC)NC(=O)[C@H](CC(=O)O)NC(=O)[C@H](CC(=O)O)NC(=O)[C@H](CCC(=O)O)NC(=O)[C@H](CO)NC(=O)[C@H](Cc4c[nH]c5ccccc45)NC(=O)[C@@H]4CCCN4C(=O)CNC(=O)[C@H](CC(N)=O)NC(=O)[C@@H](NC(=O)CNC(=O)[C@H](Cc4ccccc4)NC(=O)CN)CSSC[C@H](NC(=O)[C@H](Cc4ccc(O)cc4)NC(=O)CNC(=O)CNC(=O)[C@H](CCCCN)NC(=O)[C@H](Cc4ccc(O)cc4)NC(=O)CNC(=O)[C@H](CCCCN)NC1=O)C(=O)N[C@@H](C)C(=O)N[C@@H](CCCNC(=N)N)C(=O)NCC(=O)NCC(=O)N[C@@H](Cc1ccccc1)C(=O)N[C@@H](C(C)C)C(=O)N3)C(=O)N[C@@H](Cc1c[nH]cn1)C(=O)N[C@@H](CC(N)=O)C(=O)N[C@@H](Cc1c[nH]cn1)C(=O)N2` [NZX] (H-GFGCNGPWSEDDIQCHNHCKSIKGYKGGYCARGGFVCKCY-OH; disulfide 4-30, 15-37, 19-39; N-terminus and C-terminus assumed), the “inflammatory symptoms of mammary tissue (H&E histology)” value in the assay on three S. aureus strains (24 h after treatment) is “obviously improved”. The “pathological scores of mammary tissues” value in the assay with three S. aureus strains (compared with the PC group) is reported as “significantly decreased”. In addition, in the assay with S. aureus ATCC 25923, the MIC is on record as 0.46^a μM. Moreover, the MPC in the assay with S. agalactiae is on record as 1.82 µM. Also, the “percentage of PI-positive cells” value with S. aureus ATCC 43300 (setting [1]) is recorded as 1.91 to 75.17%; in the assay on S. aureus ATCC 43300 (setting [2]), 57.1–75.1%.

Broadly, the EC50 is the concentration at which the effect is half-maximal. With `CCC[C@@H]1C[C@@H](C(=O)N[C@@H]([C@H]2O[C@H](SC)[C@H](O)[C@@H](O)[C@H]2O)[C@@H](C)O)N(C)C1` [Lincomycin], in the assay with S. aureus E48, a half-maximal effect (EC50) was put at 1470 nM and the Cs came to 1.38 µM.

For the molecule `CO/N=C(\C(=O)N[C@@H]1C(=O)N2C(C(=O)O)=C(CSC(=O)c3ccco3)CS[C@H]12)c1csc(N)n1` [Ceftiofur], in the assay with S. aureus E48, the concentration for a half-maximal effect (EC50) was determined as 1180 nM and the Cs came out at 1.11 µM. In addition, the “percentage of PI-positive cells” value in the assay on S. aureus ATCC 43300 (setting [1]) was 1.82–24.20%. The “percentage of PI-positive cells” value with S. aureus ATCC 43300 (setting [2]) is given as 15.5–15.8%.
